Several values for one entry are separate records, joined by “and”; a condition that tells them apart may be missing. Identical values can stand only once. Marks after values point to notes of the source that are not given here.
Experiment: In vivo biodistribution of [^99mTc]Tc-carvedilol in healthy Swiss albino mice
Conditions: for [^99mTc]Tc-carvedilol percentages of injected dose per Gram organ: i.v. tail vein
From the text: For biodistribution and receptor occupancy studies, 24 healthy adult Swiss albino mice (12 males and 12 females, aged 10–12 weeks, weighing 25–30 g) were obtained from the Egyptian National Research Center. Mice outside the 25–30 g weight range were excluded to ensure consistency in the biodistribution outcomes. Prior to the study, animals were housed in groups of four with ad libitum access to food and water and underwent a 2-week acclimatization period. After this adaptation phase, the mice were randomly assigned to the study groups using the lot-drawing method.
Given ^99mTc’s physical half-life of approximately 6 h, shorter imaging and sampling intervals are generally preferred to maximize radioactive signal fidelity and minimize decay-related variability. At 24 h post-injection, the residual ^99mTc activity could fall below quantifiable thresholds, potentially compromising the precision of biodistribution data. To prevent this, all data collection was restricted to early post-injection intervals—specifically […]—when radioactivity levels remain within optimal detection ranges for gamma counting. By omitting the 24 h time point altogether, the study design ensured that the radiotracer signal would be robust enough to yield statistically reliable biodistribution profiles without being confounded by the isotope’s exponential decay. Additionally, prior pilot studies were conducted to empirically determine the time window during which the radiochemical integrity and quantification signal-to-noise ratio remained analytically valid. These informed the exclusion of late-phase sampling and reinforced confidence in the reliability of kinetic data collected within the defined 6 h observation window. Therefore, six mice were euthanized at each selected time point via standardized cervical dislocation performed by trained personnel in accordance with institutional animal care guidelines. The procedure followed the AVMA Guidelines for the Euthanasia of Animals ([Kirkwood, 2013]), ensuring it was rapid, humane, and reproducible. To ensure procedural consistency, all cervical dislocations were performed by the same experienced researcher, following pre-established protocols that involved correct animal positioning, anatomical landmark identification, and verification of death through cessation of heartbeat and respiration. Immediately postmortem, body weight was recorded, and blood was collected via cardiac puncture.
Organ harvesting included the collection of the heart, liver, lungs, kidneys, spleen, stomach, intestines, muscle (right leg), bone, and brain. Following dissection, tissues were gently rinsed with isotonic saline to remove residual blood, promptly weighed, kept at low temperatures, and immediately subjected to gamma counting to preserve radiochemical integrity and avoid post-collection decay artifacts. No storage or freezing was used to prevent degradation or leakage of [^99mTc]Tc-carvedilol. Sample processing occurred in a shielded, on-site laboratory adjacent to the dissection area, ensuring minimal delay—typically less than 2 to 3 minutes—between collection and measurement.
To ensure methodological rigor and reproducibility, both experimental and computational components of the study were supported by a structured statistical framework. A total of 24 healthy albino mice (12 males, 12 females), aged 10–12 weeks and weighing 25 ± 3 g, were selected based on uniform health status, age, and weight to minimize inter-animal variability. Animals were maintained under controlled laboratory conditions (12-h light/dark cycle, standardized humidity, and temperature) with unrestricted access to food and water. For biodistribution analysis, animals were randomly assigned to four experimental groups, each consisting of six mice, each representing a distinct post-injection time point (15, 30, 60, and 120 min). […]

COc1ccccc1OCC[N]1CC(COc2cccc3[nH]c4ccccc4c23)[O][99Tc]12(=[O])[O]C(COc1cccc3[nH]c4ccccc4c13)C[N]2CCOc1ccccc1OC (racemic) [[^99mTc]Tc-carvedilol]
Residual [^99mTc]Tc-carvedilol percentages of injected dose per Gram in non-targeted organs (Blood row, 30 min post-injection): 96.021 ± 0.01 % ID/g
Residual [^99mTc]Tc-carvedilol percentages of injected dose per Gram in non-targeted organs (Blood row, 60 min post-injection): 92.710 ± 0.01 % ID/g
Residual [^99mTc]Tc-carvedilol percentages of injected dose per Gram in non-targeted organs (Blood row, 120 min post-injection): 94.008 ± 0.02 % ID/g
[^99mTc]Tc-carvedilol percentages of injected dose per Gram organ (Blood, 15 min post-injection): 19.895 ± 0.020 ^a % ID/g organ
[^99mTc]Tc-carvedilol percentages of injected dose per Gram organ (Blood, 30 min post-injection): 3.969 ± 0.052 % ID/g organ
[^99mTc]Tc-carvedilol percentages of injected dose per Gram organ (Blood, 60 min post-injection): 7.290 ± 0.052 % ID/g organ
[^99mTc]Tc-carvedilol percentages of injected dose per Gram organ (Blood, 120 min post-injection): 5.972 ± 0.131 % ID/g organ
[^99mTc]Tc-carvedilol percentages of injected dose per Gram organ (Bone, 15 min post-injection): 0.322 ± 0.035 % ID/g organ
[^99mTc]Tc-carvedilol percentages of injected dose per Gram organ (Bone, 30 min post-injection): 0.963 ± 0.215 % ID/g organ
[^99mTc]Tc-carvedilol percentages of injected dose per Gram organ (Bone, 60 min post-injection): 0.675 ± 0.215 % ID/g organ
[^99mTc]Tc-carvedilol percentages of injected dose per Gram organ (Bone, 120 min post-injection): 2.703 ± 0.019 % ID/g organ
Residual [^99mTc]Tc-carvedilol percentages of injected dose per Gram in non-targeted organs (Brain row, 15 min post-injection): 99.359 ± 0.01 % ID/g
Residual [^99mTc]Tc-carvedilol percentages of injected dose per Gram in non-targeted organs (Brain row, 30 min post-injection): 98.409 ± 0.03 % ID/g
Residual [^99mTc]Tc-carvedilol percentages of injected dose per Gram in non-targeted organs (Brain row, 60 min post-injection): 97.103 ± 0.01 % ID/g
Residual [^99mTc]Tc-carvedilol percentages of injected dose per Gram in non-targeted organs (Brain row, 120 min post-injection): 99.679 ± 0.02 % ID/g
[^99mTc]Tc-carvedilol percentages of injected dose per Gram organ (Brain, 15 min post-injection): 0.631 ± 0.020 % ID/g organ
[^99mTc]Tc-carvedilol percentages of injected dose per Gram organ (Brain, 30 min post-injection): 1.561 ± 0.008 % ID/g organ
[^99mTc]Tc-carvedilol percentages of injected dose per Gram organ (Brain, 60 min post-injection): 2.895 ± 0.391 % ID/g organ
[^99mTc]Tc-carvedilol percentages of injected dose per Gram organ (Brain, 120 min post-injection): 0.301 ± 0.110 % ID/g organ
Residual [^99mTc]Tc-carvedilol percentages of injected dose per Gram in non-targeted organs (Heart row, 15 min post-injection): 72.467 ± 0.02 ^a % ID/g
Residual [^99mTc]Tc-carvedilol percentages of injected dose per Gram in non-targeted organs (Heart row, 30 min post-injection): 92.707 ± 0.02 % ID/g
Residual [^99mTc]Tc-carvedilol percentages of injected dose per Gram in non-targeted organs (Heart row, 60 min post-injection): 97.838 ± 0.03 % ID/g
Residual [^99mTc]Tc-carvedilol percentages of injected dose per Gram in non-targeted organs (Heart row, 120 min post-injection): 96.414 ± 0.07 % ID/g
[^99mTc]Tc-carvedilol percentages of injected dose per Gram organ (Heart, 15 min post-injection): 27.533 % ID/g organ and 27.533 ± 0.931 % ID/g organ and 27.533 ± 0.931 ^a % ID/g organ
[^99mTc]Tc-carvedilol percentages of injected dose per Gram organ (Heart, 30 min post-injection): 7.273 ± 0.006 % ID/g organ
[^99mTc]Tc-carvedilol percentages of injected dose per Gram organ (Heart, 60 min post-injection): 2.161 ± 0.006 % ID/g organ
[^99mTc]Tc-carvedilol percentages of injected dose per Gram organ (Heart, 120 min post-injection): 3.516 ± 0.110 % ID/g organ
Residual [^99mTc]Tc-carvedilol percentages of injected dose per Gram in non-targeted organs (Intestines row, 15 min post-injection): 95.435 ± 0.09 % ID/g
Residual [^99mTc]Tc-carvedilol percentages of injected dose per Gram in non-targeted organs (Intestines row, 30 min post-injection): 96.612 ± 0.03 % ID/g
Residual [^99mTc]Tc-carvedilol percentages of injected dose per Gram in non-targeted organs (Intestines row, 60 min post-injection): 92.604 ± 0.04 % ID/g
Residual [^99mTc]Tc-carvedilol percentages of injected dose per Gram in non-targeted organs (Intestines row, 120 min post-injection): 94.643 ± 0.01 % ID/g
[^99mTc]Tc-carvedilol percentages of injected dose per Gram organ (Intestines, 15 min post-injection): 4.507 ± 0.521 % ID/g organ
[^99mTc]Tc-carvedilol percentages of injected dose per Gram organ (Intestines, 30 min post-injection): 3.358 ± 0.792 % ID/g organ
[^99mTc]Tc-carvedilol percentages of injected dose per Gram organ (Intestines, 60 min post-injection): 7.355 ± 0.792 % ID/g organ
[^99mTc]Tc-carvedilol percentages of injected dose per Gram organ (Intestines, 120 min post-injection): 5.347 ± 0.521 % ID/g organ
Residual [^99mTc]Tc-carvedilol percentages of injected dose per Gram in non-targeted organs (Kidneys row, 30 min post-injection): 67.207 ± 0.04 ^a % ID/g
Residual [^99mTc]Tc-carvedilol percentages of injected dose per Gram in non-targeted organs (Kidneys row, 60 min post-injection): 75.608 ± 0.01 % ID/g
Residual [^99mTc]Tc-carvedilol percentages of injected dose per Gram in non-targeted organs (Kidneys row, 120 min post-injection): 70.660 ± 0.05 % ID/g
[^99mTc]Tc-carvedilol percentages of injected dose per Gram organ (Kidneys, 15 min post-injection): 2.764 ± 0.012 % ID/g organ
[^99mTc]Tc-carvedilol percentages of injected dose per Gram organ (Kidneys, 30 min post-injection): 32.753 ± 0.345 % ID/g organ and 32.753 ± 0.345 ^a % ID/g organ

— PMC12280724 (Frontiers in Pharmacology, 2025)
